The values that follow come from ChEMBL document CHEMBL1201862, “PubChem BioAssay data set” (2004).

Structures are written as SMILES. The source made the active and inactive calls.

For series [1], the target named is Dual specificity protein phosphatase 3 (Homo sapiens, UniProt P51452). Put plainly: SAR VHR1 Fluorescent Assay for In Vitro dose response studies Set 3. [Related pubchem assays (depositor defined):AID1654, AID1661, AID1878]. The class given is functional.
A further series addresses SUMO E1/E2 (Homo sapiens, UniProt P63279+Q9UBE0+Q9UBT2). Put plainly: SAR analysis of SUMOylation using HTRF in an in-Vitro dose response assay. [Related pubchem assays (depositor defined):AID2006, AID2011, AID2018, AID2069, AID2658]. The series is classed as functional.
Series [2] addresses T1, Voltage-gated N-type calcium channel alpha-1B subunit/Amyloid beta A4 precursor protein-binding family A member 1 (Homo sapiens, UniProt Q00975+Q02410). The series can be described thus: disruptors of Mint-PDZ/N-type channel peptide interaction – biochemical, HTRF, set 2, SAR follow-up (AID 434980). The series is classed as functional. In general terms: In TR-FRET formats the signal depends on donor and acceptor labels being close together.

The target of series [3] is T1, Voltage-gated N-type calcium channel alpha-1B subunit/Amyloid beta A4 precursor protein-binding family A member 1. The series can be described thus: disruptors of Mint-PDZ/N-type channel peptide interaction – biochemical, HTRF, SAR follow-up (AID 2489). The class given is functional.
In a further series the target is Cytochrome P450 2C19 (Homo sapiens, UniProt P33261). The series can be described thus: Cytochrome panel assay with activity outcomes. Panel member name: p450-cyp2c19 Compounds with AC50 equal or less than 10 uM are considered active. The series is classed as functional. Particulars: read-out: AC50.
The target in the next series is Cytochrome P450 2D6 (Homo sapiens, UniProt P10635).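 Note: CYP2D6 member of a cytochrome P450 panel assay.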
Chain of Cytochrome P450 2D6 (P10635 whole entry): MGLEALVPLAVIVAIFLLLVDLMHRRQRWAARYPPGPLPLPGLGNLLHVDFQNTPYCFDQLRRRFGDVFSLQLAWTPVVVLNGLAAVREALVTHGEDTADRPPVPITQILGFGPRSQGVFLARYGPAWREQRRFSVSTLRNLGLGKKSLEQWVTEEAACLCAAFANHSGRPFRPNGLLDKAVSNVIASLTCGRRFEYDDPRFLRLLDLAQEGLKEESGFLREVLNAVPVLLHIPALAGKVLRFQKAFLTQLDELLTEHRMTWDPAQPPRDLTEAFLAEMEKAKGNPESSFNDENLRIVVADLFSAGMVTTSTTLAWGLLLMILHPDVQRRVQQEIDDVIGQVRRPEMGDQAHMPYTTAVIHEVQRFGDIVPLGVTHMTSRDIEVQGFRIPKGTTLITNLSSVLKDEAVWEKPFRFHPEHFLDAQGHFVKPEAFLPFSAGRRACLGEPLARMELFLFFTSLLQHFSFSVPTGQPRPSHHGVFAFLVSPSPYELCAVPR
In another series the test system is Jurkat. Put plainly: SAR Analysis of small molecule inhibitors of […] specific antigen receptor-induced NF-kB activation in a Jurkat cell line using a luminescence assay - Set 3. [Related pubchem assays (depositor defined):AID435022, AID435025, AID465]. The class given is functional, cell-based. Particulars: Homo sapiens.
Series [4] concerns HEK293. The series can be described thus: SAR Analysis of small molecule inhibitors of B-cell specific antigen receptor-induced NF-kB activation in a HEK-293T cell line using a luminescence assay - Set 2. [Related pubchem assays (depositor defined):AID435022, AID435025, AID489021]. The class given is functional, cell-based. Particulars: Homo sapiens.
The test system of series [5] is HEK293. The series can be described thus: cytotoxicity in HEK293T NF-kB-Luc cells, SAR follow-up, cytotoxicity control for NF-kB activator project, cell-based, resazurin fluorescence (AID 493251). The class given is functional. Particulars: Homo sapiens.
Series [6] concerns the target T2, Mu-type opioid receptor (Homo sapiens, UniProt P35372). Put plainly: SAR Analysis of Antagonists of the MOR Receptor using an Image-Based Assay - Set 2. [Related pubchem assays (depositor defined):AID1777, AID1785, AID1786, AID1966, AID2133, AID2136, AID2284, AID2285, AID2420]. The series is classed as functional.
The target in series [7] is T3, Kappa-type opioid receptor (Homo sapiens, UniProt P41145). The series can be described thus: SAR analysis of Antagonists of the Kappa Opioid Receptor (KOR) using an Image-Based Assay - Set 2. [Related pubchem assays (depositor defined):AID1777, AID1785, AID1786, AID1966, AID2133, AID2136, AID2284, AID2285, AID2348]. The class given is functional.
T3 sequence (P41145 whole entry): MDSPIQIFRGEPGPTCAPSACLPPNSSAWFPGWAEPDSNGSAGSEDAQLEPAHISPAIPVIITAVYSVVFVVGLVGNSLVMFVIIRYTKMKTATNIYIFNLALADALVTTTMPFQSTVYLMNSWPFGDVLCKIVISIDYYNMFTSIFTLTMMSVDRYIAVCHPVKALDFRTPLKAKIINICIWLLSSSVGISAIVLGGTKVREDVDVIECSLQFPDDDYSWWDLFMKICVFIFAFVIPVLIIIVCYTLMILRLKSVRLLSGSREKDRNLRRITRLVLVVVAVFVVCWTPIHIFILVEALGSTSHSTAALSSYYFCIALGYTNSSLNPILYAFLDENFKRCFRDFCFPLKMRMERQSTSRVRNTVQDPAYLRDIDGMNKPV
The target in series [8] is T2, Mu-type opioid receptor. Put plainly: SAR Analysis of Agonists of the MOR Receptor using an Image-Based Assay - Set 2. [Related pubchem assays (depositor defined):AID1777, AID1785, AID1786, AID1966, AID2133, AID2136, AID2284, AID2285, AID2352]. The series is classed as functional.
Series [9] has as its target T3, Kappa-type opioid receptor. Put plainly: SAR analysis of small molecule agonists of the kappa opioid receptor via a luminescent beta-arrestin assay - Set 2. [Related pubchem assays (depositor defined):AID1777, AID1785, AID1786, AID1966, AID2133, AID2136, AID2284, AID449737]. The class given is functional.
Series [10] concerns the target T4, Delta-type opioid receptor (Homo sapiens, UniProt P41143). The series can be described thus: SAR Analysis of Agonists of the DOR Receptor using an Image-Based Assay - Set 2. [Related pubchem assays (depositor defined):AID1777, AID1785, AID1786, AID1966, AID2133, AID2136, AID2284, AID2285, AID2370]. The series is classed as functional.
Series [11] concerns the target T4, Delta-type opioid receptor. Put plainly: SAR Analysis of Antagonists of the DOR Receptor using an Image-Based Assay - Set 2. [Related pubchem assays (depositor defined):AID1777, AID1785, AID1786, AID1966, AID2133, AID2136, AID2284, AID2285, AID2357]. The series is classed as functional.
In series [12] the target is T3, Kappa-type opioid receptor. Put plainly: SAR analysis of Agonists of the Kappa Opioid Receptor (KOR) using an Image-Based Assay - Set 2. [Related pubchem assays (depositor defined):AID1777, AID1786, AID1966, AID2133, AID2136, AID2284, AID2285, AID2359]. The series is classed as functional.
For another series, the system named is Escherichia coli. Put plainly: microbe, parasite or virus in culture.

T4 sequence (P41143 whole entry): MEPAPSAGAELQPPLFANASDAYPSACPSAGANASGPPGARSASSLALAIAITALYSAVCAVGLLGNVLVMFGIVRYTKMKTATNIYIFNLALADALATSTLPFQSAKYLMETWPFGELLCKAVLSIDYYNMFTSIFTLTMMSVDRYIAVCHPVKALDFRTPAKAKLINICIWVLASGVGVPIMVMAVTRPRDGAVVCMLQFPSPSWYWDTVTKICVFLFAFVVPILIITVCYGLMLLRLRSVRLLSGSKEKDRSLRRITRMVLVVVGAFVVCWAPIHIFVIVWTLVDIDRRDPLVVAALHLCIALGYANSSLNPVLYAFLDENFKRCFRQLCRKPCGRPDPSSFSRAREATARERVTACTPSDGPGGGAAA
T1 sequence (Q00975 whole entry): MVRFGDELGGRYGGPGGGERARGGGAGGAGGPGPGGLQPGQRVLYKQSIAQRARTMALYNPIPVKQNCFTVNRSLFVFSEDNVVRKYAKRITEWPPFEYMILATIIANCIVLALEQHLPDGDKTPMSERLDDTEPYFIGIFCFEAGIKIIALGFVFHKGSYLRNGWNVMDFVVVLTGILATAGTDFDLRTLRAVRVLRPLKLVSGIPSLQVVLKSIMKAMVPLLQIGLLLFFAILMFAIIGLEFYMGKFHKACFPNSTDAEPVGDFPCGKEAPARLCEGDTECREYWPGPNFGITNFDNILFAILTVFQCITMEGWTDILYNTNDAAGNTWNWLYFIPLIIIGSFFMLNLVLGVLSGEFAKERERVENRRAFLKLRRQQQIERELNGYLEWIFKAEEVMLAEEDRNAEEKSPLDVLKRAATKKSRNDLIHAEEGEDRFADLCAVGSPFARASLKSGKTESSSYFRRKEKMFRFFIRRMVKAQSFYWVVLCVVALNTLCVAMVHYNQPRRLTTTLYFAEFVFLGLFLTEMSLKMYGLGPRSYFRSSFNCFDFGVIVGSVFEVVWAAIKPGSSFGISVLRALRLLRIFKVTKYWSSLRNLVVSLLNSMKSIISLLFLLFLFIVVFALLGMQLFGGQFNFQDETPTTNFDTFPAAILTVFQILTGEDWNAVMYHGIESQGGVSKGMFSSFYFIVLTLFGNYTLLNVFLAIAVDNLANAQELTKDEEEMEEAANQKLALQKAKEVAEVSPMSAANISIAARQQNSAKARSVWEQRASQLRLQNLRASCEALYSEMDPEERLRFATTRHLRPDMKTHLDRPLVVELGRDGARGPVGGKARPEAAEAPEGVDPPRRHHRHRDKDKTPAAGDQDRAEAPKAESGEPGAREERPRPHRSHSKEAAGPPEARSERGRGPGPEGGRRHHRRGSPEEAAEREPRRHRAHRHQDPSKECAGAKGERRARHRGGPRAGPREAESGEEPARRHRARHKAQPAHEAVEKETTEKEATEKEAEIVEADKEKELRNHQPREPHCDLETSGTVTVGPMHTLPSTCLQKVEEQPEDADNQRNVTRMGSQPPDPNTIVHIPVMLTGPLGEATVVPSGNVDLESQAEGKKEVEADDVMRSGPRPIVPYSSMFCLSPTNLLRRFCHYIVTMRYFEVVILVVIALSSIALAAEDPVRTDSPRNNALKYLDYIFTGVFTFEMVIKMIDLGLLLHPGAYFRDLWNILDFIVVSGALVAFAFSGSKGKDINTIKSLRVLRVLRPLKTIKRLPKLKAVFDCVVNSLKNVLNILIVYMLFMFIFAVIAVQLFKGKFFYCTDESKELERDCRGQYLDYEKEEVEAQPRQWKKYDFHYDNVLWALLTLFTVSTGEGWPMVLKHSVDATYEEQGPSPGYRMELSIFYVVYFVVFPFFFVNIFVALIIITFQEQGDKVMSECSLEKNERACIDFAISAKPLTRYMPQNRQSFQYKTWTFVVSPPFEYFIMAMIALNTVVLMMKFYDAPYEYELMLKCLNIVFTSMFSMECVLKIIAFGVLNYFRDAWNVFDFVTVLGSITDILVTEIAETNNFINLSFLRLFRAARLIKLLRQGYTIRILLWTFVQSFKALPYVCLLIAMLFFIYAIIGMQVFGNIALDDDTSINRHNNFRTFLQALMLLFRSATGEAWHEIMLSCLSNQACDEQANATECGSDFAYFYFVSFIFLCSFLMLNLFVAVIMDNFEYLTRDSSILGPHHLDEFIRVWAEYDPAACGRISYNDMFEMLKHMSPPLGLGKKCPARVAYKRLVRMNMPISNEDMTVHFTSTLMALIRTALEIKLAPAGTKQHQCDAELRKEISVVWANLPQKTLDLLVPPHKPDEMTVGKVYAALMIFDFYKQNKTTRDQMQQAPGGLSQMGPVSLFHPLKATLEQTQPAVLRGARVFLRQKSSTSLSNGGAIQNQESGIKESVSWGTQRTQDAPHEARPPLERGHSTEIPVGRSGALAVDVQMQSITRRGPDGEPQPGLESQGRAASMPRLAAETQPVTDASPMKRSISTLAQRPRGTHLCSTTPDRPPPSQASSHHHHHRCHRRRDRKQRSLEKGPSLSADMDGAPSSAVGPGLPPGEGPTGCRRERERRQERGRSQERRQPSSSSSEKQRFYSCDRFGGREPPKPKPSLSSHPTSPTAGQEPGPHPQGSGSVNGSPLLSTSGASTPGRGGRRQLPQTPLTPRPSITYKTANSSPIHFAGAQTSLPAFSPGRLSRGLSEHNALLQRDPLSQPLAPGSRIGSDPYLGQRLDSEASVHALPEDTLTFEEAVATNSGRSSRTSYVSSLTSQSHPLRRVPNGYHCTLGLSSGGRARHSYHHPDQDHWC
T1 sequence (Q02410 whole entry): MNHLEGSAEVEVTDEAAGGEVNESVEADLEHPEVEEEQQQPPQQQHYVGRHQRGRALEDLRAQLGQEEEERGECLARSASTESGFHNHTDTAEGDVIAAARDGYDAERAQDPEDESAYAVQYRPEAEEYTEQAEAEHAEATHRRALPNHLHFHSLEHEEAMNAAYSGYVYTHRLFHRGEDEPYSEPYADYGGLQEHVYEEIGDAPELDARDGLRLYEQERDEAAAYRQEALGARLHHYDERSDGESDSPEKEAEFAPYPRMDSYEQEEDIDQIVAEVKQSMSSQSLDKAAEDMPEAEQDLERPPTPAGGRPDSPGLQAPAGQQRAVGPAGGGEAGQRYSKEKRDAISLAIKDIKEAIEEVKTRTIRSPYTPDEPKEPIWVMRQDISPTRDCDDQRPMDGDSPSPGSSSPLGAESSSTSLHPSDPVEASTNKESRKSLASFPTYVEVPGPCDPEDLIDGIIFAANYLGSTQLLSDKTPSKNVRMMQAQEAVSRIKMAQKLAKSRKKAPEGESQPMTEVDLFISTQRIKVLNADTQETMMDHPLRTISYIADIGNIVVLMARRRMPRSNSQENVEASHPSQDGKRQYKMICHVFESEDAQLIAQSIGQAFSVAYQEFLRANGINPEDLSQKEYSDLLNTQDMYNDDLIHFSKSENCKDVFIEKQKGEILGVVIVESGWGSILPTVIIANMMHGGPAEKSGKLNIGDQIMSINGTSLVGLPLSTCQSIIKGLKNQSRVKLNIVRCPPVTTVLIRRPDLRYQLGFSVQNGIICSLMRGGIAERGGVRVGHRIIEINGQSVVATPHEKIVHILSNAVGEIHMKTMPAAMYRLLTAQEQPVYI
T2 sequence (P35372 whole entry): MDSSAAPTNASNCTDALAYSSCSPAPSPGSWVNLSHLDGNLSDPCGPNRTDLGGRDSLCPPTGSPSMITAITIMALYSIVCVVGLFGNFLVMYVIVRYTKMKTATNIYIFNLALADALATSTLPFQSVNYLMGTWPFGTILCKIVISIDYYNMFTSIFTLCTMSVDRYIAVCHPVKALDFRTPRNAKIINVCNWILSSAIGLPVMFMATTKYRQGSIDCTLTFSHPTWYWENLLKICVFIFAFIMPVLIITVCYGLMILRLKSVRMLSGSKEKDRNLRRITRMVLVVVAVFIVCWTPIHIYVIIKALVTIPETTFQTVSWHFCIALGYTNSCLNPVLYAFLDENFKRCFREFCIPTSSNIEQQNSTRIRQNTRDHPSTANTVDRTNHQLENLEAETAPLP
Chain of Dual specificity protein phosphatase 3 (P51452 whole entry): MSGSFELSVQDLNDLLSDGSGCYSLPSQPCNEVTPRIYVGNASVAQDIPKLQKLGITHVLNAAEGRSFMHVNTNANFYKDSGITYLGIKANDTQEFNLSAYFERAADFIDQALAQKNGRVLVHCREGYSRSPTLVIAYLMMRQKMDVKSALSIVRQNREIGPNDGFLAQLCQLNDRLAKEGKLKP

As for `COc1ccc(-c2nnc(Nc3nc4ccc(SC)cc4s3)o2)cc1`, the IC50 (commonly the midpoint of a concentration-inhibition curve) in series [1] was 15.4 µM (active).

On to `COc1ccc(CCNC(=O)COC(=O)c2cc(-c3ccco3)nc3ccccc23)cc1`, for which the IC50 was 11.5 µM (active) on SUMO E1/E2, 12.2 µM (active) in series [2] and 32.9 µM (active) in series [3].

For the compound `NC(=O)CC(c1ccccc1)c1ccco1` (configuration not stated), the AC50 (in general, the concentration at which the activity in the assay is half-maximal) was 28.2 µM (inconclusive) on Cytochrome P450 2C19 and “inconclusive” at Cytochrome P450 2D6.

Turning to `CNC(=O)CCc1nc(-c2ccc(C)cc2)no1`, the IC50 in the series with Jurkat, in the series with HEK293 [4] and in the series with HEK293 [5] was > 80 µM (inactive) in each case.

Regarding `c1ccc(CSc2nnc(-c3ccccn3)n2Cc2ccco2)cc1`, the IC50 (on Mu-type opioid receptor [6]; in series [7]; in [11]) was > 32 µM (inactive) in each case. Moreover, the EC50 (as a rule, the concentration that produces a half-maximal response) at Mu-type opioid receptor [8] is > 32 µM (inactive); in series [9], 17.9 µM (inactive); in series [10], > 32 µM (inactive); in [12], > 32 µM (inactive).

As to `Cc1c(Cl)cccc1NC(=O)C1NC(=O)CC1c1ccccc1` (configuration not stated), the AC50 in the series with Escherichia coli is 27.6 µM (active).
